{
  "source": "paper PMC12300041",
  "about": "“Tricyclic Isatin Derivatives as Anti-Inflammatory Compounds with High Kinase Binding Affinity” (Molecules, 2025)",
  "key": {"[1]": {"tested_on": "NF-κB/AP-1 transcriptional activity", "test": "LPS-induced NF-κB/AP-1 reporter (secreted alkaline phosphatase) in THP-1Blue cells", "assay_type": "cell-based, human", "settings": "250 ng/mL LPS, N.A.: not active at the highest tested concentration (50 μM), read-out: AP Production (THP-1 Cells) IC50", "experimental": "Human THP-1Blue monocytic cells stably transfected with a secreted embryonic alkaline phosphatase gene that is under control of a NF-κB/AP-1-inducible promoter were obtained from InvivoGen (San Diego, CA, USA). These cells were cultured in RPMI 1640 medium (Mediatech Inc., Herndon, VA, USA) containing 10% (v/v) fetal bovine serum (FBS), 100 μg/mL streptomycin, 100 U/mL penicillin, 100 μg/mL phleomycin (Zeocin), and 10 μg/mL blasticidin S (all from Sigma-Aldrich, St. Louis, MO, USA).\nAfter incubation of THP-1Blue cells (2 × 10^5 cells/well) with test compounds or control DMSO (1% final concentration) for 30 min, 250 ng/mL of lipopolysaccharide (LPS; from Escherichia coli strain 0111:B4) was added, and the cells were incubated for 24 h. Secreted alkaline phosphatase activity was assessed in the cell supernatants using the QUANTI-Blue mix (InvivoGen; absorbance at 655 nm) and compared with positive controls treated with LPS alone. Compound concentrations that inhibited 50% of the NF-κB reporter activity (IC50) were determined."}, "[2]": {"tested_on": "IL-6 production", "test": "LPS-induced IL-6 production in MonoMac-6 cells (ELISA)", "assay_type": "cell-based", "settings": "Homo sapiens, MONO-MAC-6, 24 h, N.A.: not active at the highest tested concentration (50 μM)", "experimental": "Human MonoMac-6 monocyte/macrophage cells (Deutsche Sammlung von Mikroorganismen und Zellkulturen GmbH, Braunschweig, Germany) were cultured in RPMI 1640 medium containing 10% (v/v) FBS, 10 μg/mL bovine insulin, 100 μg/mL streptomycin, and 100 U/mL penicillin.\nAn IL-6 ELISA kit (BD Biosciences, San Jose, CA, USA) was used to assess the effect of selected compounds on IL-6 production. MonoMac-6 cells were plated in 96-well plates at a density of 2 × 10^5 cells/well in culture medium supplemented with 3% (v/v) endotoxin-free FBS. Cells were pretreated with test compound or DMSO for 30 min, followed by addition of 200 ng/mL LPS for 24 h. For selected compounds, the IC50 for cytokine production was calculated by plotting percentage inhibition against the logarithm of inhibitor concentration (at least five points)."}, "[3]": {"tested_on": "proinflammatory cytokine production", "test": "Multiplex human cytokine ELISA, LPS-stimulated MonoMac-6 cells", "assay_type": "cell-based", "settings": "10 μM compound, 24 h, versus DMSO-treated control", "source_text": "A multiplex human cytokine ELISA kit from Anogen (Mississauga, ON, Canada) was used to evaluate various cytokines (IL-1α, IL-1β, IL-6, GM-CSF, MCP-1, IFN-γ, and TNF) in the supernatants of MonoMac-6 cells."}, "[4]": {"target": "T1, DAPK1 (Homo sapiens, UniProt P53355)", "T1 construct": "purchased Eurofins Pharma Discovery (KINOMEscan)", "T1 sequence (P53355 whole entry)": "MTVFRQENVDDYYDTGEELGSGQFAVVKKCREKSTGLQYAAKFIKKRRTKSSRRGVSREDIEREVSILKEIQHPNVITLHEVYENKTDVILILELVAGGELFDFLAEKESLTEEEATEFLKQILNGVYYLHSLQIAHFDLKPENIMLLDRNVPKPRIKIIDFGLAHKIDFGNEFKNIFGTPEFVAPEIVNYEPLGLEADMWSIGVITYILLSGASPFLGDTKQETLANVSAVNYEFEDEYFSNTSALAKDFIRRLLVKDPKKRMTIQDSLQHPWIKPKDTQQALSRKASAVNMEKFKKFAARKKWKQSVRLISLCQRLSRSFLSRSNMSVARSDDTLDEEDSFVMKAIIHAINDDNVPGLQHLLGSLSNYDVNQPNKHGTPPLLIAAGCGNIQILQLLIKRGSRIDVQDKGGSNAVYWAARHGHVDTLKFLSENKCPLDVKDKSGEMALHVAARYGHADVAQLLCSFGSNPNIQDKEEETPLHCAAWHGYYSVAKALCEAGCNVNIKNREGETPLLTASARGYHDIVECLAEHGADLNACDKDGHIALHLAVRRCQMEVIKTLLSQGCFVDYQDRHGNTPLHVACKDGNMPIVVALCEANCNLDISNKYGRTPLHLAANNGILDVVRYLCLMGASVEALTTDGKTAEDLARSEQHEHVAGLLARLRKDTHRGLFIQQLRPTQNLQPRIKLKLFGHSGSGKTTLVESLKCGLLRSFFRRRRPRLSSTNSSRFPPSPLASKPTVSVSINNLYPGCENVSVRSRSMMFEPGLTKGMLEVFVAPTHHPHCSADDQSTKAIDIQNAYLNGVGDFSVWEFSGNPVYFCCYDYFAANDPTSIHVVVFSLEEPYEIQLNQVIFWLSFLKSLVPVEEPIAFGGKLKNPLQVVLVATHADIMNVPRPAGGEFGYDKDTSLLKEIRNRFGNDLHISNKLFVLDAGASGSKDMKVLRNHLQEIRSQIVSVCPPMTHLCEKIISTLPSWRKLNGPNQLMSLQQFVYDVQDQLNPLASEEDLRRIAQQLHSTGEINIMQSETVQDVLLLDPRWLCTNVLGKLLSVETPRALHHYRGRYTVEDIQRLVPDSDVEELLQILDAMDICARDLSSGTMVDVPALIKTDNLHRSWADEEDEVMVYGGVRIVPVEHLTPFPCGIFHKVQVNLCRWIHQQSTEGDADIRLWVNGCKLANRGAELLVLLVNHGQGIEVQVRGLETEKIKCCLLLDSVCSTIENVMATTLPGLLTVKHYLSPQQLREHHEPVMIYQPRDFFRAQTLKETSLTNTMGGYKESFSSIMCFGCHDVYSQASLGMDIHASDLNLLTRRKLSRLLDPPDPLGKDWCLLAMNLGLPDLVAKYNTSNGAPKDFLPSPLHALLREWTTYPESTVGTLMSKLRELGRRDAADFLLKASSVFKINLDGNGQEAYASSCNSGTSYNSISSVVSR", "test": "KINOMEscan", "assay_type": "binding", "settings": "for Kd: DAPK1, N.B.: no binding at concentrations up to 30 µM", "experimental": "(§1) Kinase profiling was performed by KINOMEscan (Eurofins Pharma Discovery, San Diego, CA, USA), using a panel of 423 protein kinases, as described previously. Compounds were submitted for dissociation constant (Kd) determination toward several target kinases using KINOMEscan. […] Binding reactions were performed at room temperature for 1 h, and the fraction of kinase not bound to the test compound was determined by capture with an immobilized affinity ligand and quantified by quantitative polymerase chain reaction. The primary screening at fixed concentrations of the compound was performed in duplicate. For dissociation constant Kd determination, a 12-point half-log dilution series (a maximum concentration of 33 μM) was used."}, "[5]": {"target": "T2, HIPK1 (Homo sapiens, UniProt Q86Z02)", "T2 construct": "purchased Eurofins Pharma Discovery (KINOMEscan)", "T2 sequence (Q86Z02 whole entry)": "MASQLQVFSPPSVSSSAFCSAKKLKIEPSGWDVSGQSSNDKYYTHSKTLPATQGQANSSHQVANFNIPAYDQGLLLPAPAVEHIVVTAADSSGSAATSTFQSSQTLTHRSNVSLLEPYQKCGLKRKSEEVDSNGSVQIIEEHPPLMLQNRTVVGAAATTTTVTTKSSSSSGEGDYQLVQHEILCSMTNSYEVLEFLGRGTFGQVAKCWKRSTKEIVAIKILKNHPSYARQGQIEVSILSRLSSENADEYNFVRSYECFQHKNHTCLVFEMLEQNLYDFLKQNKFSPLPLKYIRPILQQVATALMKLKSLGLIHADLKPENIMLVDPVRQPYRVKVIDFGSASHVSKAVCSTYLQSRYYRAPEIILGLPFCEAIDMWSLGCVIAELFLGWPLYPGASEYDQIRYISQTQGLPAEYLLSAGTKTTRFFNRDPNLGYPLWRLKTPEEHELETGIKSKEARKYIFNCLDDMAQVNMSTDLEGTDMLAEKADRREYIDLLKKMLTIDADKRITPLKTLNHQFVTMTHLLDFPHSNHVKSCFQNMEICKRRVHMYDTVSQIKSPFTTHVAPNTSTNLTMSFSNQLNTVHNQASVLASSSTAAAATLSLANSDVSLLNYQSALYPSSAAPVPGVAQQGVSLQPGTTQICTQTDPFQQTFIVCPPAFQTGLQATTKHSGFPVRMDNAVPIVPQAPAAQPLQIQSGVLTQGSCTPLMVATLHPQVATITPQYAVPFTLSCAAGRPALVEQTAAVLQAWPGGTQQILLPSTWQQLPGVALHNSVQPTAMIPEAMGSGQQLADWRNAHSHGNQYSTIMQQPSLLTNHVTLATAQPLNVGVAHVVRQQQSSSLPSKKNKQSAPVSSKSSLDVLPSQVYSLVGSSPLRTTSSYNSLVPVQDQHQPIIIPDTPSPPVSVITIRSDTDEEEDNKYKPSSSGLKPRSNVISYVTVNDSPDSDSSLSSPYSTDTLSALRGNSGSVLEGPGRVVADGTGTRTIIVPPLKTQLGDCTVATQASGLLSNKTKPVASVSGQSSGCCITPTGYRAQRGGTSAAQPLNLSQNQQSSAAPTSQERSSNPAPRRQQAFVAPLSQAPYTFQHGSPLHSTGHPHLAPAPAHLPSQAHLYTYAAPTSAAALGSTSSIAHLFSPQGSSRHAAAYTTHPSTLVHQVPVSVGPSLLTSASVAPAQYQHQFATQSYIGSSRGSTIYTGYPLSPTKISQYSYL", "test": "KINOMEscan", "assay_type": "binding", "settings": "for Kd: HIPK1, N.B.: no binding at concentrations up to 30 µM", "experimental": "as §1"}, "[6]": {"target": "T3, IRAK1 (Homo sapiens, UniProt P51617)", "T3 construct": "purchased Eurofins Pharma Discovery (KINOMEscan)", "T3 sequence (P51617 whole entry)": "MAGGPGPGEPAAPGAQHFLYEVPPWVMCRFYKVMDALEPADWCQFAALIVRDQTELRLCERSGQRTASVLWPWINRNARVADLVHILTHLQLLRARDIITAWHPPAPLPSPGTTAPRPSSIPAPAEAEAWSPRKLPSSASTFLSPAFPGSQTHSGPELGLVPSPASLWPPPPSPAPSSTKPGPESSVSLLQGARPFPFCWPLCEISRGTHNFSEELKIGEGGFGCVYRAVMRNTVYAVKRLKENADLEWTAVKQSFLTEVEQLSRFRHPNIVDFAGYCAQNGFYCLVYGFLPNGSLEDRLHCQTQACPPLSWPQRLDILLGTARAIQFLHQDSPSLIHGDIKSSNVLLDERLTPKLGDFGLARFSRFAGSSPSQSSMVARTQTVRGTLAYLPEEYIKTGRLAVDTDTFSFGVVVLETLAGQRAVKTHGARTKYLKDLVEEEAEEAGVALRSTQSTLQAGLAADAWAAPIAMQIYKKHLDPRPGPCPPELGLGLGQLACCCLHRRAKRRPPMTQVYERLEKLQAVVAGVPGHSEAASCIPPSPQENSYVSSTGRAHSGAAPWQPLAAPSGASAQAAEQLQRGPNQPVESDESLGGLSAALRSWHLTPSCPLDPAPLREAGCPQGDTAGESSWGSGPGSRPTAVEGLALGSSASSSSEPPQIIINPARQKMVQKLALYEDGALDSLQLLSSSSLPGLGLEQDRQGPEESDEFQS", "test": "KINOMEscan", "assay_type": "binding", "experimental": "as §1"}, "[7]": {"target": "T4, ANKK1 (Homo sapiens, UniProt Q8NFD2)", "T4 construct": "purchased Eurofins DiscoverX KINOMEscan", "test": "KINOMEscan", "assay_type": "binding", "experimental": "as §1"}, "[8]": {"target": "T5, CLK1 (Homo sapiens, UniProt P49759)", "T5 construct": "purchased Eurofins DiscoverX KINOMEscan", "test": "KINOMEscan", "assay_type": "binding", "experimental": "as §1"}, "[9]": {"target": "T6, ERBB4 (Homo sapiens, UniProt Q15303)", "T6 construct": "purchased Eurofins DiscoverX KINOMEscan", "test": "KINOMEscan", "assay_type": "binding", "experimental": "as §1"}, "[10]": {"target": "T7, IKK-α (Homo sapiens, UniProt O15111)", "T7 construct": "purchased Eurofins DiscoverX KINOMEscan", "test": "KINOMEscan", "assay_type": "binding", "experimental": "as §1"}, "[11]": {"target": "T8, JAK1 (JH2domain-pseudokinase) (Homo sapiens, UniProt P23458)", "T8 construct": "JAK1 (JH2domain-pseudokinase); purchased Eurofins DiscoverX KINOMEscan", "T8 sequence (P23458 561-860 limits assumed)": "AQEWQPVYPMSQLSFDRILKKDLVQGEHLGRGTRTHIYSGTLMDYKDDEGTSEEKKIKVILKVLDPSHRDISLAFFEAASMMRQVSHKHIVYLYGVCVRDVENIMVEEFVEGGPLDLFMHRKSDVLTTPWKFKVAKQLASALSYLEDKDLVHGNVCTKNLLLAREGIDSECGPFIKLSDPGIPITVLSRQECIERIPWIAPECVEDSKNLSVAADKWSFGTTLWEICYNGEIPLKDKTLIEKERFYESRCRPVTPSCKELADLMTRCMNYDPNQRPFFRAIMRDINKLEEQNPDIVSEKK", "test": "KINOMEscan", "assay_type": "binding", "experimental": "as §1"}, "[12]": {"target": "T9, JNK1 (Homo sapiens, UniProt P45983)", "T9 construct": "purchased Eurofins DiscoverX KINOMEscan", "test": "KINOMEscan", "assay_type": "binding", "experimental": "as §1"}, "[13]": {"target": "T10, LZK (Homo sapiens, UniProt O43283)", "T10 construct": "purchased Eurofins DiscoverX KINOMEscan", "test": "KINOMEscan", "assay_type": "binding", "experimental": "as §1"}, "[14]": {"target": "T11, MAP3K3 (Homo sapiens, UniProt Q99759)", "T11 construct": "purchased Eurofins DiscoverX KINOMEscan", "test": "KINOMEscan", "assay_type": "binding", "experimental": "as §1"}, "[15]": {"target": "T12, MAP4K2 (Homo sapiens, UniProt Q12851)", "T12 construct": "purchased Eurofins DiscoverX KINOMEscan", "T12 sequence (Q12851 whole entry)": "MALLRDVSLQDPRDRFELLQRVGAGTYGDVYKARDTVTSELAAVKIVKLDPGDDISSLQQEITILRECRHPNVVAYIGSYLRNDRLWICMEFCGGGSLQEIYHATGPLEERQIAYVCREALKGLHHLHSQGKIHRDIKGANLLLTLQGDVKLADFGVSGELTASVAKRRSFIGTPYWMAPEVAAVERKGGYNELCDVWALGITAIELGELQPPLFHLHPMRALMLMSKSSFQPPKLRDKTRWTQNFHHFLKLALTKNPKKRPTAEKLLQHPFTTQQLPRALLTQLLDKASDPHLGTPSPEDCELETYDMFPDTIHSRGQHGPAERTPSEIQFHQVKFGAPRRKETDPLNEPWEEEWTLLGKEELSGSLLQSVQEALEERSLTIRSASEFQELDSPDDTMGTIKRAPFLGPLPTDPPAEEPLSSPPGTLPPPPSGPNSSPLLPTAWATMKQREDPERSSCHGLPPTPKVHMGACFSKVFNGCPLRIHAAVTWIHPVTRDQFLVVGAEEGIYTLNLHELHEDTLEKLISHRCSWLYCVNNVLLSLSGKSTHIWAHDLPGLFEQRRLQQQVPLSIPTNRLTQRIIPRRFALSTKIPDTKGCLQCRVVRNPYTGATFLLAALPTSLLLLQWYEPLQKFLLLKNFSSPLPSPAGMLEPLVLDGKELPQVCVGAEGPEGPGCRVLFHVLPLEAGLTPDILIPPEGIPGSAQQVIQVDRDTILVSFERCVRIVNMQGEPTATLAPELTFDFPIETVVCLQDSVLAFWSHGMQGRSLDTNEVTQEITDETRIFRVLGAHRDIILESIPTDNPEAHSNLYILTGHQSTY", "test": "KINOMEscan", "assay_type": "binding", "experimental": "as §1"}, "[16]": {"target": "T13, MERTK (Homo sapiens, UniProt Q12866)", "T13 construct": "purchased Eurofins DiscoverX KINOMEscan", "test": "KINOMEscan", "assay_type": "binding", "experimental": "as §1"}, "[17]": {"target": "T14, MLCK (Homo sapiens, UniProt Q32MK0)", "T14 construct": "purchased Eurofins DiscoverX KINOMEscan", "test": "KINOMEscan", "assay_type": "binding", "experimental": "as §1"}, "[18]": {"target": "T15, MST1 (Homo sapiens, UniProt Q13043)", "T15 construct": "purchased Eurofins DiscoverX KINOMEscan", "T15 sequence (Q13043 whole entry)": "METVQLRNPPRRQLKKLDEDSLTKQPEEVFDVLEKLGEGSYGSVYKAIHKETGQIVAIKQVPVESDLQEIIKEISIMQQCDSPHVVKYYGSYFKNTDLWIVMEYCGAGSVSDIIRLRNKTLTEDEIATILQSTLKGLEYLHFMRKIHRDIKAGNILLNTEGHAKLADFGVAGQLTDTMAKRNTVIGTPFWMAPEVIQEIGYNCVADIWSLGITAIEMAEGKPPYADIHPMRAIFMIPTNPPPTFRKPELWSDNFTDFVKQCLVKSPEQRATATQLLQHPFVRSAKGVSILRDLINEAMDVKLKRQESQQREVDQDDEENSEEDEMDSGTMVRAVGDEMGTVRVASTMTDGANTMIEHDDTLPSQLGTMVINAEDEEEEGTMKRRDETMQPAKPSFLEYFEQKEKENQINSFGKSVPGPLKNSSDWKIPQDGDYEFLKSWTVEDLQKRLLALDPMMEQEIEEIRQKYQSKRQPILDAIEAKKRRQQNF", "test": "KINOMEscan", "assay_type": "binding", "experimental": "as §1"}, "[19]": {"target": "T16, MST3 (Homo sapiens, UniProt Q9Y6E0)", "T16 construct": "purchased Eurofins DiscoverX KINOMEscan", "test": "KINOMEscan", "assay_type": "binding", "experimental": "as §1"}, "[20]": {"target": "T17, NEK11 (Homo sapiens, UniProt Q8NG66)", "T17 construct": "purchased Eurofins DiscoverX KINOMEscan", "test": "KINOMEscan", "assay_type": "binding", "experimental": "as §1"}, "[21]": {"target": "T18, PRKD1 (Homo sapiens, UniProt Q15139)", "T18 construct": "purchased Eurofins DiscoverX KINOMEscan", "test": "KINOMEscan", "assay_type": "binding", "experimental": "as §1"}, "[22]": {"target": "T19, STK36 (Homo sapiens, UniProt Q9NRP7)", "T19 construct": "purchased Eurofins DiscoverX KINOMEscan", "test": "KINOMEscan", "assay_type": "binding", "experimental": "as §1"}, "[23]": {"target": "T20, ULK3 (Homo sapiens, UniProt Q6PHR2)", "T20 construct": "purchased Eurofins DiscoverX KINOMEscan", "test": "KINOMEscan", "assay_type": "binding", "experimental": "as §1"}, "[24]": {"target": "T21, ZAP70 (Homo sapiens, UniProt P43403)", "T21 construct": "purchased Eurofins DiscoverX KINOMEscan", "test": "KINOMEscan", "assay_type": "binding", "experimental": "as §1"}, "[25]": {"settings": "IRAK1, N.B.: no binding at concentrations up to 30 µM"}},
  "note": "Like-named read-outs stand apart in the source and are kept apart here.",
  "data": [
    {"smiles": "O=C1Nc2c(ccc3c2CCCC3)C1=NO", "note": "[Compound 5a, 3-(Hydroxyimino)-1,3,6,7,8,9-hexahydro-2H-benzo[g]indol-2-one]", "values": [
      {"measurement": "IC50", "setting": "[1]; 24 h", "value": "6 ± 1.3", "unit": "µM"},
      {"measurement": "IC50", "setting": "[1]; Homo sapiens, THP-1, 24 h", "value": "< 6.1", "unit": "µM"},
      {"measurement": "IC50", "setting": "[2]", "value": "48.3 ± 4.4", "unit": "µM"},
      {"measurement": "inhibition of secretion of IL-1α, IL-1β, IL-6, TNF and MCP-1", "setting": "[3]", "value": "less effective"},
      {"measurement": "Kd", "setting": "[4]", "value": "13.5 ± 0.7", "unit": "µM"},
      {"measurement": "Kd", "setting": "[5]", "value": "1.1 ± 0.07", "unit": "µM"},
      {"measurement": "Kd (µM)", "setting": "[6]; [25]", "value": "N.B."}
    ]},
    {"smiles": "O=C1Nc2c(cc([N+](=O)[O-])c3c2CCCC3)C1=NO", "note": "[Compound 5d, 3-(Hydroxyimino)-5-nitro-1,3,6,7,8,9-hexahydro-2H-benzo[g]indol-2-one]", "values": [
      {"measurement": "IC50", "setting": "[1]; 24 h", "value": "5.5 ± 1.4", "unit": "µM"},
      {"measurement": "IC50", "setting": "[1]; Homo sapiens, THP-1, 24 h", "value": "< 6.1", "unit": "µM"},
      {"measurement": "IC50", "setting": "[2]", "value": "12.6 ± 3.2", "unit": "µM"},
      {"measurement": "inhibition of secretion of IL-1α, IL-1β, IL-6, TNF and MCP-1", "setting": "[3]", "value": "inhibited"},
      {"measurement": "inhibition at 10 µM", "setting": "[7]", "value": 8, "unit": "%"},
      {"measurement": "inhibition at 10 µM", "setting": "[8]", "value": 85, "unit": "%"},
      {"measurement": "inhibition at 10 µM", "setting": "[4]; 10 μM", "value": 96.3, "unit": "%"},
      {"measurement": "Kd", "setting": "[4]", "value": "0.29 ± 0.02", "unit": "µM"},
      {"measurement": "inhibition at 10 µM", "setting": "[9]", "value": 4, "unit": "%"},
      {"measurement": "inhibition at 10 µM", "setting": "[5]; 10 μM", "value": 98.5, "unit": "%"},
      {"measurement": "Kd", "setting": "[5]", "value": "0.52 ± 0.113", "unit": "µM"},
      {"measurement": "inhibition at 10 µM", "setting": "[10]", "value": 52, "unit": "%"},
      {"measurement": "inhibition at 10 µM", "setting": "[6]; 10 μM", "value": 99.2, "unit": "%"},
      {"measurement": "Kd", "setting": "[6]; [25]", "value": "0.67 ± 0.113", "unit": "µM"},
      {"measurement": "inhibition at 10 µM", "setting": "[11]", "value": 89, "unit": "%"},
      {"measurement": "inhibition at 10 µM", "setting": "[12]", "value": 76, "unit": "%"},
      {"measurement": "inhibition at 10 µM", "setting": "[13]", "value": 0, "unit": "%"},
      {"measurement": "inhibition at 10 µM", "setting": "[14]", "value": 68, "unit": "%"},
      {"measurement": "inhibition at 10 µM", "setting": "[15]", "value": 53, "unit": "%"},
      {"measurement": "inhibition at 10 µM", "setting": "[16]", "value": 4, "unit": "%"},
      {"measurement": "inhibition at 10 µM", "setting": "[17]", "value": 11, "unit": "%"},
      {"measurement": "inhibition at 10 µM", "setting": "[18]", "value": 32, "unit": "%"},
      {"measurement": "inhibition at 10 µM", "setting": "[19]", "value": 62, "unit": "%"},
      {"measurement": "inhibition at 10 µM", "setting": "[20]", "value": 46, "unit": "%"},
      {"measurement": "inhibition at 10 µM", "setting": "[21]", "value": 61, "unit": "%"},
      {"measurement": "inhibition at 10 µM", "setting": "[22]", "value": 10, "unit": "%"},
      {"measurement": "inhibition at 10 µM", "setting": "[23]", "value": 55, "unit": "%"},
      {"measurement": "inhibition at 10 µM", "setting": "[24]", "value": 2, "unit": "%"}
    ]}
  ]
}
